For the assay, the system named is OCI-Ly10. The assay is described as follows: Inhibition of growth of OCI-Ly10 (ABC-DLBCL cells). In kind it is cell-based. The following applies: Homo sapiens. An excerpt: DLBCL cells of the ABC subtype, such as OCI-Ly10, have chronic active BCR signaling and are very sensitive to the Btk inhibitor described herein. […] In addition, induction of apoptosis, as shown by capsase activation, Annexin-V flow cytometry and increase in sub-GO fraction is observed in OCILy 10. Both sensitive and resistant cells express Btk at similar levels, and the active site of Btk is fully occupied by the inhibitor in both as shown using a fluorescently labeled affinity probe. […] The activity of Btk inhibitors in the cell lines studied herein are also characterized by comparing signal transduction profiles (Btk, PLCγ, ERK, NF-kB, AKT), cytokine secretion profiles and mRNA expression profiles, both with and without BCR stimulation, and observed significant differences in these profiles that lead to clinical biomarkers that identify the most sensitive patient populations to Btk inhibitor treatment. See U.S. Pat. No. 7,711,492 and Staudt et al., Nature, Vol. 463, Jan. 7, 2010, pp. 88-92, the contents of which are incorporated by reference in their entirety.

Like-named read-outs stand apart in the source and are kept apart here.

One may read the EC50 as the concentration at which the effect is half-maximal.

`C=CC(=O)N1CCC[C@@H](n2nc(-c3ccc(Oc4ccccc4)cc3)c3c(N)ncnc32)C1` [Compound 1, 1-((R)-3-(4-amino-3-(4-phenoxyphenyl)-1H-pyrazolo[3,4-d]pyrimidin-1-yl)piperidin-1-yl)prop-2-en-1-one]: the EC50 stood at 50 nM (read-out: EC50 1 hour pulse, growth of OCI-Ly10, 1 hour pulse) and 10 nM (growth of OCI-Ly10, continuous exposure, read-out: EC50 continuous exposure).

For the origin of these results see US10010507B1, “Pharmaceutical formulations of a bruton's tyrosine kinase inhibitor” (Pharmacyclics LLC, priority 2015, dated 2018).
